# Data reported in a melting point compilation (Tetko et al.; mined from patent text by program, amines drawn as free bases though some values may be those of a salt).
row,Structure (SMILES),melting point [°C]
1,CC1=C(C)N(c2c(Br)cc(C)cc2Br)C2=NCCN21,154 to 156
2,COC(=O)c1cc(NC=O)ccn1,185 to 186
3,CC(C)(C)CNc1nc(Cl)cc(NC(C)(C)C)n1,115 to 119
4,COCOc1c(OC)cc(C=O)cc1OC,52 to 53
5,CC1(C)Cc2cccc(OCCCBr)c2O1,54 to 56
6,CCOC(=O)C(=O)Nc1nc(C)cs1,171 to 173
7,CSC(=NCc1cccnc1)NC#N,152 to 154
8,O=C(Oc1ccc([N+](=O)[O-])cc1)c1ccc2[nH]cc(CCN3C(=O)c4ccccc4C3=O)c2c1,248 to 251
9,Nc1nc2c(Oc3cc(-c4ccc(C(F)(F)F)cc4)ncn3)cccc2s1,232 to 234
10,CC(C)c1cc(C(C)C)c(CCC(=O)O)c(C(C)C)c1,194 to 196
11,C=CCNC(=O)N1CC(Oc2cccc(Br)c2)C1,90 to 92
12,Cc1[nH]n(C2CCCC2)c2nc(-c3cc[nH]c(=O)c3)nc(=O)c1-2,> 300
13,COc1ccc(-c2ccnc3c(C(=O)c4cccs4)cnn23)cc1NC(=O)OC(C)C,193 to 195
14,CC(C)n1c(C(F)(F)F)cnc1-c1ccc(O)cc1,249 to 250
15,Cc1cccnc1C(=O)c1[nH]c2cc(Cl)ccc2c1CC(=O)O,195 to 196
16,Cc1ccc(C)n1CCNC(=S)Nc1ccc(C(=O)O)cc1,174 to 175
17,CC(C)(C)c1cc(Cc2nc3ccccc3o2)cc(C(C)(C)C)c1O,94 to 96
18,O=C(O)c1ccc2cc(-c3cc4c(c(C56CC7CC(CC(C7)C5)C6)c3)OCO4)ccc2c1,300 to 305
19,Cc1c(Cl)ccc(OC(C)C(=O)O)c1Cl (stereo unspecified),150

row,Structure (SMILES),melting point [°C]
1,Cn1cc(C2=C(c3cn(CCCNC(N)=NC#N)c4ccccc34)C(=O)NC2=O)c2ccccc21,168 to 170
2,CCCc1nn(-c2ccc(C(F)(F)F)cn2)cc1CCCOc1ccc(CC(=O)O)c(OC)c1,135 to 136
3,COc1ccc(-c2c3c(nn2-c2ccccc2)-c2cccc(N)c2C3=O)cc1,273
4,Nc1cccc(-c2ccc(CC3CCCCN3Cc3ccccc3)cc2)n1 (stereo unspecified),70 to 85
5,CCCc1nc(SC)c(C(O)(C(=O)O)C(C)C)n1Cc1ccc(-c2ccccc2S(=O)(=O)NC(=O)NCc2ccccc2)cc1 (stereo unspecified),180
6,COC(=O)c1ccc(S(=O)(=O)C(Cn2ccnc2)c2ccccc2OC)cc1 (stereo unspecified),150 to 151
7,c1ccc(-c2nc(COc3ccc(CCCn4ccnc4)cc3)cs2)cc1,110 to 111
8,COc1cc(C=CC(=O)N2CCN(c3nc(N)c4cc(OC)c(OC)cc4n3)CC2)cc(OC)c1,132 to 135
9,NC(=O)Cc1ccc(-c2cnc3[nH]c(=O)n(CC4CCCCC4)c3n2)cc1,272 to 274
10,Cc1cccc(N2CC(=O)NC(=O)N2)c1,245 to 247
11,CCOC(=O)c1n[nH]c(C(=O)OCC)c1C(=O)c1ccc(Cl)cc1[N+](=O)[O-],168
12,O=C1CCC(N2Cc3cc(CNC(=O)Nc4ccc(Br)cc4)ccc3C2=O)C(=O)N1 (stereo unspecified),278 to 280
13,CC1(Cn2nc(-c3ccc(Br)cc3)oc2=O)Cn2cc([N+](=O)[O-])nc2O1 (stereo unspecified),231 to 233
14,O=C(CCCCl)Nc1ccc2[nH]ncc2c1,160 to 161
15,CCOC(=O)CC(C)c1ccc(C2COc3c(C)c(C)c(NC(=O)CC(C)(C)C)c(C)c32)cc1 (stereo unspecified),100 to 101
16,COc1cc2ncc(N[C@@H]3C[C@@H]4C[C@H]3C[C@H]4O)nc2cc1OC,190 to 192
17,O=C1Nc2ccccc2N(C(=O)CCCl)c2ccccc21,241 to 242
18,Cc1nc(C)c(Cl)c(NCc2ccc(Oc3ccc4ncc([N+](=O)[O-])n4n3)c(OCC3CC3)c2)n1,178 to 180
19,CCOC(=O)c1cc(OCc2ccccc2)c2ccc(Br)cc2c1,105

row,Structure (SMILES),melting point [°C]
1,Cc1ccccc1-c1ccc(C(=O)N2Cc3ccc(C(=O)NCCCc4ccccc4)n3Cc3ccccc32)cc1C,183 to 184
2,CCOP(=O)(/C=C/c1cn(-c2ccccc2)nc1OCc1ccc(OCc2nc(-c3ccccc3)cn2C)c(OC)c1)OCC,144 to 145
3,CCc1ccc(N(Cc2ccc(C(=O)N(C)C)cc2)C(=O)Nc2c(C(C)C)cccc2C(C)C)cc1,170 to 172
4,COc1cc2c(cc1-c1cnccn1)-c1c(-c3cncs3)c3c(n1CC2)C(=O)N(C(C)(C)C)CCCOC3,235 to 236
5,O=C(NC(=O)N1C(=O)Cc2ccccc21)C1CCCCC1,144 to 146
6,COc1ccccc1N1CCN(CCNc2ccccc2OC(F)(F)F)CC1,69.5 to 71
7,CCN(CC)c1nc(Cl)nc2c(SC)ncnc12,90 to 91
8,CCOC(=O)C(=CNc1ncc(OC)c2ccccc12)C(=O)OCC,150 to 153
9,Cc1nc2c(NC(=O)C(C)(C)C)c(C(=O)C=Cc3ccccc3)ccn2c1C,108 to 110
10,CS(C)=Nc1cnc(Cl)cn1,119 to 120
11,Cc1nnc2n1-c1sc(C(=O)O)cc1C(c1ccccc1Cl)=NC2,302
12,CCc1cc(Oc2cccnc2)c(S(C)(=O)=O)cc1C(=O)N=C(N)N,219 to 223
13,Cc1ccc(C=CC(=O)O)cn1,214 to 216
14,O=C(O)CNC(=O)c1sc(Nc2ccccc2)c2c1CCc1cnoc1-2,193 to 194
15,COc1ccc(-c2nccn2N=Cc2ccccc2)cc1,155
16,CONc1nc(-c2ccccc2)c2cc(Cl)ccc2n1,174
17,COC(=O)c1cc(C(=O)c2cc(C(=O)OC)c(OC)c([N+](=O)[O-])c2)cc([N+](=O)[O-])c1OC,96 to 98
18,COc1cccc2c1OC(C(=O)Nc1ccncc1)C2CC(=O)O (stereo unspecified),227 to 233
19,CC(C)NCC(O)c1ccc(N)c(C#N)c1 (stereo unspecified),159 to 161

# Other lines, results leading:
row,melting point [°C],Structure (SMILES)
1,145 to 147,Cc1cc(Oc2c([N+](=O)[O-])cc([N+](=O)[O-])cc2C(F)(F)F)n[nH]1
2,146 to 147,CC(=O)Nc1c(C#N)cnn1-c1ccc(C)cc1Cl
3,190,CC(C)(C)[N+]([O-])=Cc1c(O)cc(O)cc1O
4,145 to 146,CC(CF)c1ccc(NC(=O)N(C)C)cc1 (stereo unspecified)
5,115 to 117,C=CCOc1ccc(C(=O)C=Cc2cccnc2)c(O)c1
6,130,COc1cccc2c(N3CCNCC3)cc(C(F)(F)F)nc12
7,230,CCc1cccc(C)c1CNc1nc(C(=O)O)cn2c(C)c(C)nc12
8,159 to 160,CCOc1cc(C=O)ccc1OCc1nc(-c2ccco2)oc1C
9,238 to 240,Cc1c(CO)c2cnnc(NCc3ccccc3)c2n1Cc1ccccc1
10,222 to 223,COc1c(/C=C/c2ccc(C(=O)O)cc2)c(C)cc2c1C(C)(C)CCC2(C)C
11,195 to 197,COc1cc(NC(=O)C#Cc2ccc(C(F)(F)F)cc2Cl)ccc1OCCN1CCC(OC)CC1
12,206 to 209,CON1CCC(C2NC(=O)C(c3c(C)cc(C)cc3C)=C2O)CC1 (stereo unspecified)
13,86 to 87,c1ccc(C2(Oc3ccccn3)CCNCC2)cc1
14,275 to 280,O=C(O)c1ccccc1Nc1ccncc1
15,303 to 306,Cc1nnc2nc(-c3ccccc3)ccn12
16,178 to 181,C[C@@H](n1ccn(-c2ccc(-n3ccnn3)cc2)c1=O)[C@](O)(Cn1cncn1)c1ccc(F)cc1F
17,166,Oc1cc2c(c3c1CC=CC3)Nc1ccccc1S2
18,116 to 118,CC(C)(C)OC(=O)CN(CCO)C(=O)c1cc([N+](=O)[O-])ccc1F
19,316 to 319,CN(C)C1CCc2c(c3ccccc3n2CC(=O)O)C1 (stereo unspecified)
20,143 to 145,C#CC(C)NCC(O)COc1ccccc1C=Cc1nnc(C)s1 (stereo unspecified)
21,231 to 233,CC(C)CCn1cc(C(=O)c2ccccc2)c(=O)c2cn(C)nc21
22,187 to 189,CCNS(=O)(=O)/C=C/C1=C(C)NC(C)=C(C(=O)OC(C)C)C1c1cccc([N+](=O)[O-])c1 (stereo unspecified)

row,melting point [°C],Structure (SMILES)
1,211 to 212,CC(C)(C)OC(=O)N1CCN(C(=O)OC[C@@]2(C)Cn3cc([N+](=O)[O-])nc3O2)CC1
2,149 to 151,Cc1ncsc1C(C)(O)c1ccsc1 (stereo unspecified)
3,212 to 214,Cc1cccc2c1C(=O)N1CCCC1C(=O)N2 (stereo unspecified)
4,> 275,COc1ccc(/C=C/c2nc3c(c(=O)n(C)c(=O)n3C)n2C)c(C)c1C
5,184,CSc1ncc(S(N)(=O)=O)c(Nc2cccc(C)c2)n1
6,144 to 145,O=[N+]([O-])c1ccc(OCC(O)COc2ccc([N+](=O)[O-])cc2)cc1
7,87 to 88,CCOC(=O)c1sc2ccc(Br)cc2c1C
8,173 to 175,CCOC(=O)C1=C(N)Nc2ccnc(OC(C)C)c2C1c1ccccc1C(F)(F)F (stereo unspecified)
9,274 to 276,Oc1cccc2c1CC(n1cc[nH]c1=S)CC2 (stereo unspecified)
10,84 to 86,CC12CCC1(C)C(=O)OC2=O (stereo unspecified)
11,325 to 327,O=C(O)c1cccc2cc3ccc(Cl)cc3c(C(=O)O)c12
12,191 to 193,COc1cncnc1N1CCN(CCCc2c[nH]c3ccc(Nc4cc(=O)c4=O)cc23)CC1C (stereo unspecified)
13,286,Cn1c(=O)c(C#N)c(N2CCN(C(=O)c3cccs3)CC2)c2cc(F)ccc21
14,190 to 191,CC(=O)NC1=NN(c2ccccc2)CC1
15,156,CCOC(=O)c1c(N2CCN(C)CC2)c2cc(F)ccc2n(Cc2ccccc2)c1=O
16,146 to 148,COc1ccc(-c2cc3cc(OC)cc(C(C)(C)C#N)c3o2)cc1
17,141 to 142,COc1cc(Cn2c(=S)sc3ccccc32)cc(OC)c1O
18,84 to 86,COC(=O)C(=CNc1cc(-c2cccc(Cl)c2)sc1C(=O)O)SC
19,91 to 92,CCC(=O)NCc1c[nH]c2ccccc12
20,167 to 168,O=C(Nc1cccc(C(F)(F)F)c1)c1ccccc1SSc1ccccc1C(=O)Nc1cccc(C(F)(F)F)c1
21,138 to 140,CC(C)C[C@@H](C(=O)O)N1C(=O)[C@@H](N2C(=O)OC[C@@H]2c2ccccc2)[C@H]1CCc1ccccc1
22,170,Clc1cc(Cl)cc(-c2n[nH]cc2I)c1
